Values of other authors as cited in patent US10427251B2, “Fine silver particle dispersion, fine silver particles, and method for producing same” (BANDO CHEMICAL INDUSTRIES, LTD., priority 2014, dated 2019).

Settings: n-octanol/water

First: NCCCN [1,3-propanediamine]
Second: CCCCN [butylamine]
The “partition coefficient log P” value of the first is lower: −1.4 for the first, 1.0 for the second.

Compared with `COCCN` [2-methoxyethylamine], `COCCCN` [3-methoxypropylamine] is higher in “partition coefficient log P” value: −0.9 for the first, −0.5 for the second.

Compared with `CCCN` [propylamine], `CCN` [ethylamine] is lower in “partition coefficient log P” value: 0.5 for the first, −0.3 for the second.

Compared with `NCCCCCO` [pentanolamine], `CCCCCCN` [hexylamine] is higher in “partition coefficient log P” value: −0.3 for the first, 2.1 for the second.

In the case of `CCOCCCN` [3-ethoxypropylamine], the “partition coefficient log P” value is given as −0.1.
